Legend:
[1] = test system: head-twitch response (HTR) in male C57BL6 mice; assay: Mouse head twitch response (HTR); type: in vivo; conditions: I-2 10 mg/kg SC, M100907 0.5 mg/kg IP pretreatment
Method: FIG. 1. is a graph showing the effect of various doses of exemplary compound of Formula I, 1-2, on head-twitch response (HTR) in male C57BL6 mice. The mice were treated with compound I-2 (0.03-10 mg/kg, SC) by SC route (N=6 mice/dose), and the total number of head twitches were recorded over a 1 h period. Data is expressed as mean±SEM. The induction of head twitches elicited by 5-HT2A receptor agonists is believed to represent a behavioural proxy of their psychedelic effects.
Male C57BL6 mice were pretreated with the selective 5-HT2A receptor antagonist M100907 (0.5 mg/kg IP; also known as volinanserin) prior to the administration of exemplary compound of Formula I, 1-2 (10 mg/kg SC). […] Data is expressed as mean±SEM.
Male, C57BL/6J mice (body weight range 20-30 g) were dosed with the appropriate dose of test article, and following a 1-minute pre-treatment time, placed in individual observation chambers. Animals were visually assessed for the incidence head twitches continuously over a 1 hr period. […] Each head twitch was individually counted by a trained observer, and the data expressed as the mean±SEM of 6-10 mice per group. […]
The effect of various doses of exemplary compound of Formula I, 1-2, on head-twitch response (HTR) in male C57BL6 mice were measured. […] Data is expressed as mean±SEM. […]

[2] = In vivo pharmacokinetics in rats (IV and PO); conditions: male SD rats
Method: (§1) Formulations were administered intravenously (i.v.) via the tail vein or orally (p.o.) by gavage with disposable feeding needles.
(§2) Serial blood samples were collected via tail snip. Terminal blood samples will be collected under isoflurane anesthesia by cardiac puncture.
(§3) All blood samples were transferred into K2EDTA tubes on wet ice and centrifuged within 5 min (3200×g for 5 min at 4° C.) to obtain plasma. Plasma will be stored at −80° C. until analysis.
(§4) • i. Analysis software: Phoenix® WinNonlin® 8.2 (Pharsight, Certara, Mountainview, CA) • ii. Analysis methods: non-compartmental analysis, linear up/log down trapezoidal rule • iii. PK parameters: C0, t1/2, AUC0-last. AUC0-∞, CL, Vss, MRT, tmax(po), Cmax(po), F, as appropriate

[3] = In vivo pharmacokinetics in mice (IV and PO); conditions: male C57BL/6 mice
Method: Male C57BL/6 mice (25-30 g) from Charles River Labs were acclimatized for a minimum of 5 days prior to dosing. Body weights will be recorded on the day of dosing.
Animals dosed p.o. were deprived of food overnight and fed ˜2 h following dosing.
as §1, §2, §3, §4

| SMILES | effect on head-twitch response (HTR) after pretreatment with selective 5-HT2A antagonist M100907 [1] | biotransformation after administration ([2]; IV (footnote Table 7)) | biotransformation after administration ([2]; oral (footnote Table 8)) | biotransformation after administration ([3]; IV (footnote Table 5)) | biotransformation after administration ([3]; PO table (footnote Table 6 prints IV)) |
| --- | --- | --- | --- | --- | --- |
| [2H]C([2H])([2H])N1CCC[C@@H]1Cc1c[nH]c2cccc(O)c12 [Compound I-2, (R)-3-((1-(methyl-d3)pyrrolidin-2-yl)methyl)-1H-indol-4-ol] | completely blocked |  |  |  |  |
| [2H]C([2H])(c1c[nH]c2cccc(OC)c12)[C@H]1CCCN1C([2H])([2H])[2H] [Compound I-39, (R)-4-methoxy-3-((1-(methyl-d3)pyrrolidin-2-yl)methyl-d2)-1H-indole] |  | ^(a)I-39 is hydrolysed to I-44 after IV administration | ^(a)I-39 is hydrolysed to I-44 after oral administration | ^(a)I-39 is hydrolysed to I-44 after IV administration | ^(a)1-39 is hydrolysed to I-44 after IV administration |

Source: US20240336641A1, “3-PYRROLIDINE-INDOLE DERIVATIVES AS SEROTONERGIC PSYCHEDELIC AGENTS FOR THE TREATMENT OF CNS DISORDERS” (Mindset Pharma Inc., priority 2020, published 2024)
